Data taken from patent US10800804B2, “Hybrid galactoside inhibitor of galectins” (GALECTO BIOTECH AB, priority 2014, dated 2020).

Key:
[1] = molecular target: Galectin-3 (Homo sapiens (Human), UniProt P17931); assay: Fluorescence anisotropy assay with high-affinity probe (SY), 50 nM galectin-3, 100 nM albumin; format: binding
Method: (§1) 100 nM albumin was included as a carrier to prevent protein loss at such low concentration of galectin.

[2] = molecular target: Galectin-1 (Homo sapiens (Human), UniProt P09382); assay: Fluorescence anisotropy assay, compound as inhibitor of galectin / fluorescein tagged saccharide probe interaction; format: binding
Sequence of Galectin-1 (P09382 whole entry): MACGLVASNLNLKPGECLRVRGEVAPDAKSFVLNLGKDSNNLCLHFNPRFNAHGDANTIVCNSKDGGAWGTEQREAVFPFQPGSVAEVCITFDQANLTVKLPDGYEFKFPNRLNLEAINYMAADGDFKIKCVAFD
Method: as §1

[3] = molecular target: galectins; conditions: all galectins; reviewed by Leffler, 2001 and Leffler et al., 2004; cited from earlier work

Sequence of Galectin-3 (P17931 whole entry): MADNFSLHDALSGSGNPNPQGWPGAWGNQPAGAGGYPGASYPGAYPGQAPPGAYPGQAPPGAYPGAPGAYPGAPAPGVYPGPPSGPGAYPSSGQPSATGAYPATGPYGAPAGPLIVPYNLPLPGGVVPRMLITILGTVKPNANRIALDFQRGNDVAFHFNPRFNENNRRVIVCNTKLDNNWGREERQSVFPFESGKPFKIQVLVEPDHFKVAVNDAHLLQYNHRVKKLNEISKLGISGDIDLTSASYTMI

Kd ([1]; Experimental Section 2) [nM]	Kd ([2]; Experimental Section 2) [nM]	Kd ([1]; Experimental Section 1) [nM]	Kd ([2]; Experimental Section 1) [nM]	SMILES	Kd [3] [µM]
–	–	28	320	O=c1oc2ccc(F)c(F)c2cc1COC1C(O)[C@@H](CO)OC(S[C@@H]2OC(CO)[C@H](O)[C@H](n3cc(-c4cccc(F)c4)nn3)C2O)[C@@H]1O (stereo partly drawn) [Example S8a, 3′-Deoxy-3-O-[(5,6-difluoro-2-oxo-3-chromenyl)methyl]-3′-[4-(3-fluorophenyl)-1H-1,2,3-triazol-1-yl]-1,1′-sulfanediyl-di-β-D-galactopyranoside]	–
–	–	2	480	O=c1oc2ccc(F)c(F)c2cc1COC1C(O)[C@@H](CO)OC(S[C@@H]2OC(CO)[C@H](O)[C@H](n3cc(-c4cc(F)c(F)c(F)c4)nn3)C2O)[C@@H]1O (stereo partly drawn) [Example S8b, 3′-Deoxy-3-O-[(5,6-difluoro-2-oxo-3-chromenyl)methyl]-3′-[4-(3,4,5-trifluorophenyl)-1H-1,2,3-triazol-1-yl]-1,1′-sulfanediyl-di-β-D-galactopyranoside]	–
–	–	72	1200	CCCCNC(=O)c1cn([C@@H]2C(O)[C@H](SC3O[C@H](CO)C(O)C(OCc4cc5c(F)c(F)ccc5oc4=O)[C@H]3O)OC(CO)[C@@H]2O)nn1 (stereo partly drawn) [Example S8c, 3′-{4-[(Butylamino)carbonyl]-1H-1,2,3-triazol-1-yl}-3′deoxy-3-O-[(5,6-difluoro-2-oxo-3-chromenyl)methyl]-1,1′-sulfanediyl-di-β-D-galactopyranoside]	–
–	–	1	77	CCCCNC(=O)c1cn(C2C(O)[C@@H](CO)OC(S[C@@H]3OC(CO)[C@H](O)[C@H](n4cc(-c5cc(F)c(F)c(F)c5)nn4)C3O)[C@@H]2O)nn1 (stereo partly drawn) [Example S11, 3-{4-[(Butylamino)carbonyl]-1H-1,2,3-triazol-1-yl}-3,3′-dideoxy-3′-[4-(3,4,5-trifluorophenyl)-1H-1,2,3-triazol-1-yl]-1,1′-sulfanediyl-di-β-D-galactopyranoside]	–
–	–	7	90	COc1c(F)c(F)c(C(=O)NC2C(O)C(CO)OC(SC3OC(CO)C(O)C(n4cc(-c5cccc(F)c5)nn4)C3O)C2O)c(F)c1F [Example S16, 3,3′-Dideoxy-3′-[4-(3-fluorophenyl)-1H-1,2,3-triazol-1-yl]-3-(4-methoxy-2,3,5,6-tetrafluoro-benzamido)-1′-sulfanediyl-di-β-D-galactopyranoside]	–
–	–	3	66	OCC1O[C@@H](SC2O[C@H](CO)C(O)C(n3cc(-c4ccccc4)nn3)[C@H]2O)C(O)[C@@H](n2cc(-c3cc(F)c(F)c(F)c3)nn2)[C@H]1O (stereo partly drawn) [Example S21, 3,3′-Dideoxy-3-[4-(3,4,5-trifluorophenyl)-1H-1,2,3-triazol-1-yl]-3′-[4-phenyl-1H-1,2,3-triazol-1-yl]-1,1′-sulfanediyl-di-β-D-galactopyranoside]	–

The remaining lines, values behind:

SMILES	Kd ([1]; Experimental Section 2) [nM]	Kd ([2]; Experimental Section 2) [nM]	Kd ([1]; Experimental Section 1) [nM]	Kd ([2]; Experimental Section 1) [nM]	Kd [3] [µM]
OCC1O[C@@H](SC2O[C@H](CO)C(O)C(n3cc(-c4ccc(F)c(F)c4)nn3)[C@H]2O)C(O)[C@@H](n2cc(-c3ccc(F)c(F)c3)nn2)[C@H]1O (stereo partly drawn) [Example 3a, 3,3′-dideoxy-3,3′-di-[4-(3,4-difluorophenyl)-1H-1,2,3-triazol-1-yl]-1,1′-sulfanediyl-di-β-D-galactopyranoside]	3	78	–	–	–
OCC1O[C@@H](SC2O[C@H](CO)C(O)C(n3cc(-c4cc(F)c(F)c(F)c4)nn3)[C@H]2O)C(O)[C@@H](n2cc(-c3cc(F)c(F)c(F)c3)nn2)[C@H]1O (stereo partly drawn) [Example 3b, 3,3′-bisdeoxy-3,3′-bis-[4-(3,4,5-trifluorophenyl)-1H-1,2,3-triazol-1-yl]-1,1′-sulfanediyl-di-β-D-galactopyranoside]	1	79	–	–	–
OCC1O[C@@H](SC2O[C@H](CO)C(O)C(n3cc(-c4cc(F)cc(F)c4)nn3)[C@H]2O)C(O)[C@@H](n2cc(-c3cc(F)cc(F)c3)nn2)[C@H]1O (stereo partly drawn) [Example 3c, 3,3′-bisdeoxy-3,3′-bis-[4-(3,5-difluorophenyl)-1H-1,2,3-triazol-1-yl]-1,1′-sulfanediyldi-β-D-galactopyranoside]	2	110	–	–	–
O=C(NC1C(O)C(CO)OC(SC2OC(CO)C(O)C(n3cc(-c4cccc(F)c4)nn3)C2O)C1O)c1c2ccccc2cc2ccccc12 [Example S20a, 3-(9-anthracenecarboxamide)-3,3′-Dideoxy-3-[4-(3-fluorophenyl)-1H-1,2,3-triazol-1-yl]-1,1′-sulfanediyl-di-β-D-galactopyranoside]	–	–	64	380	–
O=C(NC1C(O)C(CO)OC(SC2OC(CO)C(O)C(n3cc(-c4cccc(F)c4)nn3)C2O)C1O)c1ccc2cc3ccccc3cc2c1 [Example S20b, 3-(2-anthracenecarboxamide)-3,3′-Dideoxy-3-[4-(3-fluorophenyl)-1H-1,2,3-triazol-1-yl]-1,1′-sulfanediyl-di-β-D-galactopyranoside]	–	–	140	490	–
OC[C@H]1O[C@@H](O[C@H]2[C@H](O)[C@@H](O)C(O)O[C@@H]2CO)[C@H](O)[C@@H](O)[C@H]1O (some centres unmarked) [lactose]	–	–	–	–	500 to 1000
